Data from ChEMBL document CHEMBL1132886, “Syntheses and properties of photoactivatable sugar derivatives designed to probe the sugar-binding site of melibiose permease” (Bioorg Med Chem Lett, 2000).
pKd: −log10 of the molar value.

Tests used:
[1] = Binding affinity against melibiose permease ofEscherichia coli; parameters: species or system Escherichia coli
[2] = Binding affinity against melibiose permease of Escherichia coli

Structure (SMILES)	pKd [1]	pKd [2]
N#[N+]c1ccc(OC2O[C@H](CO)[C@@H](O)[C@H](O)[C@H]2O)cc1 (some centres undefined)	4.22	
[N-]=[N+]=Nc1ccc(OC2O[C@H](CO)[C@@H](O)[C@H](O)[C@H]2O)cc1 (some centres undefined)	6.00	
OC[C@H]1OC(Oc2ccc(C3(C(F)(F)F)N=N3)cc2)[C@H](O)[C@@H](O)[C@@H]1O (some centres undefined)	5.70	
O=[N+]([O-])c1ccc(O[C@H]2O[C@H](CO)[C@@H](O)[C@H](O)[C@H]2O)cc1		6.22
